In patent US7888394B2, “Synthesis, polymorphs, and pharmaceutical formulation of FAAH inhibitors” (N.V. Organon, priority 2006, dated 2011):

Experiments:
[1] = Oral bioavailability determination of KDS-4103 polymorphs: plasma concentrations after oral administration of suspensions to rats; assay type: in vivo; conditions: for [KDS-4103] plasma concentration: oral gavage, 100 mg/mL suspension at 1 ml/kg
Description: Animals were sacrificed at 30, 60 and 90 minutes post-dose in each group. Collection of K3EDTA was acheived via cardiac puncture.

[2] = Particle size determination of KDS-4103 polymorphs (Malvern Mastersizer 2000 Hydro S, dispersed in hexane); assay type: physicochemical; conditions: 1 minute sonication (47 kHz), 10,000 sweeps
Description: “Effective particle size,” as used herein refers to and is determined on the basis of the volume weight average particle size as measured by conventional particle size measuring techniques well known to those skilled in the art. Such techniques include, for example, sedimentation field flow fractionation, photon correlation spectroscopy, light scattering, laser diffraction and disc centrifugation. For the purposes of the compositions, formulations and methods described herein, effective particle size is the volume mass average particle size as determined using light scattering methods, e.g. Horiba LA-950. For example, an effective particle size of 5.9 μm means that 50% of the particles by weight are less than 5.9 μm and 50% of the particles by weight are greater than 5.9 μm.

[3] = Oral bioavailability determination of KDS-4103 polymorphs: plasma concentrations after oral administration of suspensions to rats; assay type: in vivo; conditions: oral gavage, 100 mg/mL suspension at 1 ml/kg
[4] = system: fatty acid amide hydrolase (FAAH); conditions: cited from earlier work

| Structure (SMILES) | [KDS-4103] plasma concentration ([1]; time 30 minutes post-dose) [ng/mL] | [KDS-4103] plasma concentration ([1]; time 60 minutes post-dose) [ng/mL] | [KDS-4103] plasma concentration ([1]; time 90 minutes post-dose) [ng/mL] | levels of the compound in circulation compared to the polymorph obtained from EtOH ([1]; oral suspension) | bioavailability of the suspension ([1]; oral suspension, compared to polymorph from ethanol) | average effective average particle size ([2]; listed as KDS-4103 from acetonitrile) | concentration at 0 min ([3]; rat, plasma, po, 100 mg/kg, [KDS-4103] plasma concentration) [ng/mL] | average effective average particle size ([2]; listed as KDS-4103 from ethanol) | [KDS-4103] plasma concentration ([3]; time 0 minutes) [ng/mL] | inhibition of FAAH activity [4] |
| --- | --- | --- | --- | --- | --- | --- | --- | --- | --- | --- |
| NC(=O)c1cccc(-c2cccc(OC(=O)NC3CCCCC3)c2)c1 [KDS-4103 polymorph from acetonitrile] | 196.06 | 58.95 | 105.36 | increased levels of the compound in circulation | increased bioavailability | about 5.9 μm | 0 | – | – | – |
| NC(=O)c1cccc(-c2cccc(OC(=O)NC3CCCCC3)c2)c1 [KDS-4103 polymorph from ethanol] | 9.62 | 12.60 | 10.74 | – | – | – | – | about 13.9 μm | 0.00 | – |
| NC(=O)c1cccc(-c2cccc(OC(=O)NC3CCCCC3)c2)c1 [KDS-4103] | – | – | – | – | – | – | – | – | – | potent and selective inhibitor of FAAH activity |
